Source: publication PMC6920794, “Evaluation of Novel Chalcone-Thiosemicarbazones Derivatives as Potential Anti-Leishmania amazonensis Agents and Its HSA Binding Studies” (Biomolecules, 2019)
Like-named read-outs stand apart in the source and are kept apart here.

Key:
[1] = system: L. amazonensis axenic amastigotes; assay: Axenic amastigotes assay (resazurin); assay type: cell-based; conditions: Leishmania amazonensis, 72 h of culture, table title says 48 h
Procedure: Promastigote forms of L. amazonensis (MHOM/BR/77/LTB0016) were grown to a stationary phase, washed once in phosphate buffer solution (PBS) (pH = 7.4) and adjusted to 5 × 10^6 parasites/mL in Schneider’s medium, supplemented with 20% fetal bovine solution (FBS) pH = 5.5 and maintained at 305K. After 5 days of cultivation, the rounded forms without free flagella were obtained and, after heat shock, were used in the appropriate assays. To evaluate the activity against axenic amastigotes, the parasites were incubated with increasing concentrations of the prototypes (diluted in DMSO) for 72 h at 305K. These assays were performed in triplicate in 96-well flat bottom plates (Falcon Co, Franklin Lakes, USA). The leishmanicidal activity was evaluated by adding 22 μl of resazurin to each well. After 4 h, the cell viability was measured as described above. Calculation of the IC50 values was determined in relation to the control by a sigmoidal model using GraphPad Prism 6.0 software.

[2] = target: T1, human serum albumin (HSA) (Homo sapiens, UniProt P02768); assay: HSA time-resolved fluorescence decays; assay type: binding; conditions: 5e 2.78 × 10^−5 M, HSA 1.00 × 10^−5 M, room temperature
T1 construct: purchased Sigma Aldrich, St. Louis, MO, USA
T1 sequence (P02768 25-609): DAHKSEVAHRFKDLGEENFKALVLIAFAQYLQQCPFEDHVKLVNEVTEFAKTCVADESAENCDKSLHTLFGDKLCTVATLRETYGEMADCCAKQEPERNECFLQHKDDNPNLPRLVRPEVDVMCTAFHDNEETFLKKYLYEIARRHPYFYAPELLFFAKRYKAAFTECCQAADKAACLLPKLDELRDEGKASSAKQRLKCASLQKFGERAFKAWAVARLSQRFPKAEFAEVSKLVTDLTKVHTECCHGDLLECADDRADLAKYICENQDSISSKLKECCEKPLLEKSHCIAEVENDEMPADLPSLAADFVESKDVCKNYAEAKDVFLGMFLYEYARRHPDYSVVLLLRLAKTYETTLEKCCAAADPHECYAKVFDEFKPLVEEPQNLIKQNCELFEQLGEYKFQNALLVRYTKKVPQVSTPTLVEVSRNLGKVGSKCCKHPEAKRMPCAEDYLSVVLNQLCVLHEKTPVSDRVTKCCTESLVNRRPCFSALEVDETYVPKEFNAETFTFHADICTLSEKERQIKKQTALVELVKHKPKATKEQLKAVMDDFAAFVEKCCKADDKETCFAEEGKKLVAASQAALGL
Procedure: The fluorimeter model FL920 CD from Edinburgh Instruments (Edinburgh, UK), equipped with an electrically pumped laser (EPL, with λexc = 280 ± 10 nm; a pulse of 850 ps with the energy of […]; monitoring emission at 340 nm) was used for time-resolved fluorescence decays measurement. The experiment was conducted for a 3.0 mL HSA solution (1.00 × 10^−5 M, in PBS) without and in the presence of 5e (2.78 × 10^−5 M) at room temperature.

[3] = target: T1, human serum albumin (HSA); assay: HSA binding, steady-state fluorescence quenching; conditions: for KSV Stern-Volmer quenching constant: PBS pH 7.4
Procedure: The chemicals HSA and PBS buffer were purchased from Sigma Aldrich, St. Louis, MO, USA and the pH of buffer solution was checked (pH = 7.40). Jasco J-815 optical spectrometer (Jasco Easton, MD, USA) was used as equipment for steady-state fluorescence and circular dichroism (CD) spectra measurements and a thermostatic cuvette holder Jasco PFD-425S15F (Jasco Easton, MD, USA) was applied for control of temperature in the quartz cell (1.0 cm optical path). All spectra were recorded as the average of three scans with appropriate background corrections. For steady-state fluorescence measurements it was applied 305–450 nm range as emission wavelength (λexc = 295 nm) at 289K, 296K, 303K and 310K. First, it was recorded spectra for HSA solution (1.00 × 10^−5 M, in PBS) and then it was added manually the compound 5e, achieving final ligand concentrations of 0.35; 0.70; 1.05; 1.40; 1.74; 2.09; 2.44; and 2.78 × 10^−5 M.
In order to delete the possible absorption contribution of the compound 5e in the steady-state fluorescence results, inner filter effect was applied, according to the Equation 2 [33]:(2) Fcor=FObs10^[Aex+Aem/2] where Fcor and Fobs are the corrected and observed fluorescence intensity values, while Aex and Aem represent the absorbance value at the excitation (λ = 295 nm: ε = 6,235 cm^−1M^−1 in PBS) and emission wavelengths (λ = 340 nm: ε = 4,550 cm^−1M^−1 in PBS).
The steady-state fluorescence results for the interaction HSA:5e were analyzed according to Stern-Volmer (Equation 3), double logarithmic (Equation 4), van’t Hoff (Equation 5) and Gibbs’ free energy (Equation 6) approximations:(3) F0/F=1+Ksv[Q]=1+kqτ0[Q] (4) log(F0−F/F)=logKa+nlog[Q] (5) lnKa=−ΔH°/RT+ΔS°/R (6) ΔG°=ΔH°−TΔS° where F0 and F are the steady-state fluorescence intensities of HSA in the absence and presence of 5e, respectively. [Q], KSV and kq are the 5e concentration, Stern-Volmer quenching constant and bimolecular quenching rate constant, respectively. τ0 is the experimental fluorescence lifetime of HSA in the absence 5e (5.98 ± 0.15) × 10^−9 s. Ka and ƒ are the binding constant and fraction of the initial fluorescence intensity corresponding to the fluorophore which is accessible by the quencher (f ≈ 1.00), respectively. ΔH°, ΔS° and ΔG° are the enthalpy, entropy and Gibbs’ free energy change, respectively. T and R are the temperature (289 K, 296 K, 303 K and 310 K) and gas constant (8.3145 Jmol^−1K^−1), respectively. All quantitative values were expressed as “± SD” (obtained through three scans).

## NC(=S)N/N=C(\C=C\c1ccc(Cl)cc1)c1ccccc1 [Compound 5e, (1E,2E)-3-(4′-chlorophenyl)-1-phenylprop-2-en-1-one thiosemicarbazone]
[1]
  IC50: 3.19 ± 1.2 µM
[2]
  HSA fluorescence lifetime τ1 in the presence of ligand: 1.77 ± 0.12 ns
  HSA fluorescence lifetime τ2 in the presence of ligand: 5.91 ± 0.16 ns
[3]
  n number of binding sites: ~ 1
[3]; 289 K
  kq bimolecular quenching rate constant: 4.15e+12 M⁻¹ s⁻¹
  n number of binding sites: 1.05 ± 0.01
  ΔG° Gibbs' free energy change: −26.1 kJmol^−1
  KSV Stern-Volmer quenching constant: 2.48 ± 0.52 ×10^4 M^−1
[3]; 289 K, double logarithmic approximation, read-out: Ka binding constant (converted)
  Kd: 19.4 µM
[3]; 296 K
  kq bimolecular quenching rate constant: 4.16e+12 M⁻¹ s⁻¹
  n number of binding sites: 1.07 ± 0.01
  ΔG° Gibbs' free energy change: −26.6 kJmol^−1
  KSV Stern-Volmer quenching constant: 2.49 ± 0.50 ×10^4 M^−1
[3]; 296 K, double logarithmic approximation, read-out: Ka binding constant (converted)
  Kd: 20.6 µM
[3]; 303 K
  kq bimolecular quenching rate constant: 4.34e+12 M⁻¹ s⁻¹
  n number of binding sites: 1.06 ± 0.01
  ΔG° Gibbs' free energy change: −27.1 kJmol^−1
  KSV Stern-Volmer quenching constant: 2.59 ± 0.51 ×10^4 M^−1
[3]; 303 K, double logarithmic approximation, read-out: Ka binding constant (converted)
  Kd: 21.9 µM
[3]; 310 K
  kq bimolecular quenching rate constant: 4.6e+12 M⁻¹ s⁻¹
  n number of binding sites: 1.05 ± 0.01
  ΔG° Gibbs' free energy change: −27.6 kJmol^−1
  KSV Stern-Volmer quenching constant: 2.75 ± 0.33 ×10^4 M^−1
[3]; 310 K, double logarithmic approximation, read-out: Ka binding constant (converted)
  Kd: 22.8 µM
[3]; all temperatures, read-out: Ka binding constant (order of magnitude)
  Kd: ~100 µM
[3]; maximum addition of the ligand 2.78 × 10^−5 M, HSA 1.00 × 10^−5 M
  decrease of HSA fluorescence emission: about 50%
[3]; van't Hoff plot, 289–310 K
  ΔH° enthalpy change: −5.79 ± 0.27 kJmol^−1
  ΔS° entropy change: 7.02 ± 0.09 ×10^−2 kJmol^−1K^−1
